This data set is described as follows: Human HepG2 cell viability assay in 384 well format. Format: toxicity, cell-based. On the set-up: dose 125 nL, time 70.5 hour; cytotoxicity at 70.5 h: concentration not given beside the values. The following applies: HepG2 cells, read-out: Inhibition.
For `Cn1cc(C(O)CNC(=O)c2ccc(F)cc2Cl)cn1` (stereo not drawn), the cytotoxicity at 70.5 h was -13%.

With `Cc1nn(C)c(C)c1OCC(=O)N1CCC(O)(C(F)(F)F)CC1`, the cytotoxicity at 70.5 h was -6.23%.

Consider `CCc1noc(CN(C)C2CCN(c3sccc3C#N)C2=O)n1` (stereo not drawn), for which the cytotoxicity at 70.5 h is -2.79%.

For the compound `COCC(NC(=O)c1ccc(O)nc1)c1ccc(C)o1` (stereo not drawn), the cytotoxicity at 70.5 h was 0.572%.

As to `CNS(=O)(=O)CCCN1CCCCCC1c1ccc(C)o1` (stereo not drawn), the cytotoxicity at 70.5 h is -11%.

For `CC(C)N(Cc1ccccn1)C(=O)CCC(=O)c1ccccc1`, the cytotoxicity at 70.5 h is -7.32%.

As for `O=C(N1CCCC1)N1C[C@@H](OCc2cccnc2)[C@H]2OCCC[C@H]21`, the cytotoxicity at 70.5 h is 12.7%.

On to `CC(C(=O)N1CCC(Nc2cccnn2)CC1)n1ccnc1` (stereo not drawn), for which the cytotoxicity at 70.5 h was -8.6%.

In the case of `CC(C)[C@H]1CN(c2ccnc(N)n2)C[C@@H]1NC(=O)C1(C#N)CCOCC1`, the cytotoxicity at 70.5 h is -9.5%.

As to `CC(O)CN1CCN(C(=O)c2cnn(-c3ccccc3Cl)c2)CC1` (stereo not drawn), the cytotoxicity at 70.5 h is -2.98%.

Take `Cc1nn(C)c(N(C)C)c1CNCc1cccc(Cl)c1`: the cytotoxicity at 70.5 h stood at 0.245%.

On to `CN(Cc1cncnc1)[C@@H]1CN(C(=O)c2ccco2)[C@@H]2CCCO[C@H]12`, for which the cytotoxicity at 70.5 h was -3.82%.

On to `CN(C)CC1(O)CCN(C(=O)c2ccc(-n3cccn3)cc2Cl)C1` (stereo not drawn), for which the cytotoxicity at 70.5 h is 5.18%.

Consider `CN(C)CCCC(=O)N1C[C@H]2CC[C@@H]1CN(Cc1ccccc1)C2`, for which the cytotoxicity at 70.5 h was -6.09%.

In the case of `O=S(=O)(NCC1CCN(c2cnccn2)CC1)c1ccc(F)c(Cl)c1`, the cytotoxicity at 70.5 h is -1.36%.

On to `CCCc1cc(C(=O)N2CCC3(CCCNC3=O)C2)cs1` (stereo not drawn), for which the cytotoxicity at 70.5 h is -0.581%.

As for `N#Cc1cccc(NC(=O)CCn2nc(-c3cccs3)oc2=O)c1`, the cytotoxicity at 70.5 h is -11%.

For `CC(C)Cn1c2c(ccc1=O)CC(NC(=O)c1ccsc1)CC2` (stereo not drawn), the cytotoxicity at 70.5 h is -11.8%.

In the case of `O=C(NCCc1cccs1)NC1CCN(c2ncccn2)CC1`, the cytotoxicity at 70.5 h was -6.98%.

Consider `CC(NC(=O)CCC(=O)c1cccs1)c1nnc2n1CCC2` (stereo not drawn), for which the cytotoxicity at 70.5 h is -3.09%.

For `O=C1N(c2cccnc2)CCC12CCCN(Cc1ccco1)C2` (stereo not drawn), the cytotoxicity at 70.5 h was -3.89%.

With `Fc1cccc2ncnc(NCC3(N4CCOCC4)CCSC3)c12` (stereo not drawn), the cytotoxicity at 70.5 h turned out to be 3.01%.

Regarding `COc1ccccc1OCC(=O)n1nc(C)c(C)c1C`, the cytotoxicity at 70.5 h turned out to be 6.31%.

In the case of `COc1ccc(NC(=O)CN2CCS(=O)(=O)CC2)cn1`, the cytotoxicity at 70.5 h was -10.4%.

With `Cc1cnc(C(=O)N2CCOCC2c2ccccc2)cn1` (stereo not drawn), the cytotoxicity at 70.5 h was -10.2%.

For `O=C(NCCN1CCCc2ccccc21)c1scnc1Cl`, the cytotoxicity at 70.5 h is 10.6%.

For the compound `O=C(NCC1(O)COCCN(Cc2cccc(O)c2)C1)c1ccccn1` (stereo not drawn), the cytotoxicity at 70.5 h was -5.55%.

For `Cn1ccnc1-c1cnn(CC(=O)Nc2ccnn2C)c1`, the cytotoxicity at 70.5 h is -3%.

With `CC(O)CNC(=O)NCc1cccnc1OC1CCCC1` (stereo not drawn), the cytotoxicity at 70.5 h was -6.8%.

On to `O=C1CC(N(C(=O)c2ccc3c(c2)CCC3)C2CC2)C(=O)N1` (stereo not drawn), for which the cytotoxicity at 70.5 h came out at 33.4%.

Regarding `Cc1nc2cc(=O)[nH]n2c(C)c1CC(=O)NCc1ccc(C#N)cc1`, the cytotoxicity at 70.5 h was -0.462%.

Turning to `CC(C)N(C)CC(=O)N(C)Cc1nc(C(F)(F)F)cs1`, the cytotoxicity at 70.5 h is 2.33%.

Consider `c1cncc(-c2noc(CN3CCc4cncnc4C3)n2)c1`, for which the cytotoxicity at 70.5 h was -12.6%.

Regarding `c1ccc(CN2CC[C@H]3[C@H]2CCN3c2ncccn2)nc1`, the cytotoxicity at 70.5 h was -5.09%.

For `CCCn1cnnc1CNC(=O)CC1C(=O)NCCN1CC=C(C)C` (stereo not drawn), the cytotoxicity at 70.5 h is -0.65%.

For `CNC(=O)c1ccc(OC2CCN(S(C)(=O)=O)CC2)c(Cl)c1`, the cytotoxicity at 70.5 h came out at 3.83%.

On to `COc1cccc(S(=O)(=O)Cc2cc(C)on2)c1`, for which the cytotoxicity at 70.5 h is -3.06%.

For `COCCNS(=O)(=O)c1ccc(Cl)c(C(=O)N(C)Cc2sccc2C)c1`, the cytotoxicity at 70.5 h is -12.1%.

For the compound `CCN(C(=O)CS(=O)(=O)c1cc(OC)c(OC)cc1C)C1CC1`, the cytotoxicity at 70.5 h is -8.45%.

For `O=c1c(CN2CCOCC2)coc(O)c1CN1CCOCC1`, the cytotoxicity at 70.5 h is -7.31%.

For `CCn1cc(CN2CCN(Cc3cc(C)cc(C)c3)C(=O)C2)cc1C#N`, the cytotoxicity at 70.5 h was 15.6%.

As for `CN(C)c1cc(CNC(=O)c2ccc(F)cc2)ccn1`, the cytotoxicity at 70.5 h worked out at 2.85%.

`CCCc1nc(C)cc(NCc2ccc(S(N)(=O)=O)cc2)n1`: the cytotoxicity at 70.5 h was -16.8%.

As for `COCC(=O)N1CCC(c2ccc(OC)cc2)C1` (stereo not drawn), the cytotoxicity at 70.5 h was -16.3%.

Consider `CC(C)NC(=O)[C@H]1C[C@@H]2[C@@H](C1)OCCN2Cc1ccco1`, for which the cytotoxicity at 70.5 h is -8.12%.

As for `CN(C)c1nc(NCc2ccccc2Cn2cccn2)ncc1F`, the cytotoxicity at 70.5 h stood at 5.75%.

With `OC1CCN(Cc2cc3c(cc2Br)OCCO3)CC1`, the cytotoxicity at 70.5 h was 0.754%.

`CC(C)Nc1nc2c(c(NC3CC3)n1)CCN(Cc1nccn1C)CC2`: the cytotoxicity at 70.5 h is -1.1%.

For `O=C1CC(c2ccccc2C(F)(F)F)c2sc(N3CCOCC3)nc2N1` (stereo not drawn), the cytotoxicity at 70.5 h is -13.5%.

Consider `COC(=O)c1cccc(CNC(=O)NCCC(F)(F)F)c1`, for which the cytotoxicity at 70.5 h was 1.57%.

Take `Cc1cc(C(=O)NC2CCCN(c3ccccc3)C2=O)on1` (stereo not drawn): the cytotoxicity at 70.5 h amounted to 0.654%.

Regarding `CC(=O)NCCC1CCCCN1S(=O)(=O)c1cccc(Cl)c1` (stereo not drawn), the cytotoxicity at 70.5 h is 36.4%.

On to `CCc1cnc(C)nc1N1CCN(Cc2ccc(-c3cc[nH]n3)o2)CC1`, for which the cytotoxicity at 70.5 h amounted to 9.84%.

`Cc1nc(CNC(=O)NC2CCN(c3ncccn3)CC2)cs1`: the cytotoxicity at 70.5 h was -6.89%.

Regarding `CN(Cc1cc2ccccc2o1)S(C)(=O)=O`, the cytotoxicity at 70.5 h is -1.88%.

Turning to `Cc1cc(C)n(CC2CN(CCOc3ccccc3F)CCO2)n1` (stereo not drawn), the cytotoxicity at 70.5 h was -2.73%.

`CCN(CC)c1ccc(NS(=O)(=O)c2cnn(C(C)C)c2)cn1`: the cytotoxicity at 70.5 h was -6.47%.

With `Cc1cc(N2CCN(C(=O)c3cc(Cl)c[nH]3)CC2)nc(N)n1`, the cytotoxicity at 70.5 h is -6.18%.

For `Cc1nc(C)n(CC2CCCN(Cc3cccc(C#N)c3)C2)n1` (stereo not drawn), the cytotoxicity at 70.5 h was -15.1%.

As for `Cc1ccsc1C(=O)N1CCC2(CC(N(C)c3ccncn3)C2)C1` (stereo not drawn), the cytotoxicity at 70.5 h was -4.77%.

Take `COCC(=O)Nc1ccnc(OCCN(C)C)c1`: the cytotoxicity at 70.5 h was 4.63%.

Turning to `CCOc1ccc(CN2CC[C@H]3CC[C@@H](C2)N3)cc1CO`, the cytotoxicity at 70.5 h was -14%.

Consider `CCCc1nc(C)cc(N2CCC3(CCC(=O)N(CCCO)C3)CC2)n1`, for which the cytotoxicity at 70.5 h was -7.61%.

Regarding `Cc1ccc(CN2C[C@H]3C(=O)N(CC4CC4)C[C@@]3(C(=O)O)C2)c(F)c1F`, the cytotoxicity at 70.5 h was 9.58%.

As for `c1ccc(CN2CCc3c(COCc4ccncc4)cncc3C2)nc1`, the cytotoxicity at 70.5 h is -4.58%.

In the case of `N#Cc1ccc(CN2CCC(c3ccnn3CCO)CC2)cc1`, the cytotoxicity at 70.5 h was -2.2%.

For `O=C([C@H]1COC[C@H]2CN(C3CCOCC3)C[C@H]21)N1CCC(F)CC1`, the cytotoxicity at 70.5 h was -8.13%.

In the case of `CS(=O)(=O)CCn1ccc(NC(=O)Cc2cccc(Cl)c2)n1`, the cytotoxicity at 70.5 h was -0.645%.

For `CNC(C(=O)N1CCC(c2nccn2C(C)C)CC1)c1ccccc1` (stereo not drawn), the cytotoxicity at 70.5 h is -8.05%.

In the case of `CCN(CC)C(=O)C1(NCc2nc(C)c(C)o2)CCCCC1`, the cytotoxicity at 70.5 h was -4.63%.

For `Cc1cc(N2CCC(c3ncc[nH]3)CC2)c2ccccc2n1`, the cytotoxicity at 70.5 h is -7.19%.

Consider `COc1ccc(CN2CCC3(CC(Nc4ccncn4)C3)C2)c(OC)c1` (stereo not drawn), for which the cytotoxicity at 70.5 h is -6.97%.

Regarding `CC(=O)N1CCC2(CC1)CC(NS(C)(=O)=O)c1ccccc1O2` (stereo not drawn), the cytotoxicity at 70.5 h is -4.04%.

In the case of `Cn1nccc1CNC(=O)CCn1nc(C(F)(F)F)cc1C1CC1`, the cytotoxicity at 70.5 h was -4.88%.

With `O=C(Nc1nccs1)NC1CCN(Cc2ccccn2)CC1`, the cytotoxicity at 70.5 h was -12.4%.

Regarding `CC(C)N1CCO[C@H]2CN(C(=O)c3ccoc3)C[C@H]21`, the cytotoxicity at 70.5 h was -4.51%.

As to `CCOCC1CN(Cc2cnn(C)c2)Cc2ncn(CC3CC3)c21` (stereo not drawn), the cytotoxicity at 70.5 h was determined as 23.1%.

Consider `CCN(Cc1cccc(C(=O)Nc2c(C)cnn2C)c1)[C@H]1COC[C@@H]1O`, for which the cytotoxicity at 70.5 h is -2.17%.

As to `COc1cc(NC2CCN(C3CCS(=O)(=O)CC3)CC2)ncn1`, the cytotoxicity at 70.5 h was -20.6%.

In the case of `O=C(NCc1nncn1C1CCCCC1)C1COc2ccccc2C1` (stereo not drawn), the cytotoxicity at 70.5 h was -4%.

Turning to `CNC(=O)NC(=O)CCSc1ccccc1C`, the cytotoxicity at 70.5 h is -0.594%.

Consider `CC(C)(CNC(=O)C(C)(C)Oc1ccc2c(c1)CCCC2=O)C(N)=O`, for which the cytotoxicity at 70.5 h was determined as 0.471%.

For `CC1CN(Cc2cc(C#N)ccc2F)CCN1Cc1nccn1C` (stereo not drawn), the cytotoxicity at 70.5 h is -3.5%.

For the compound `N[C@@H]1CCN(Cc2ccccc2CS(=O)(=O)c2ccccc2)C[C@H]1O`, the cytotoxicity at 70.5 h is -8.1%.

As to `CCN(CCc1nccs1)C(=O)c1ccco1`, the cytotoxicity at 70.5 h was -7.04%.

Take `Cc1ccc(CN2C[C@H]3CC[C@@H]2CN(Cc2[nH]cnc2C)C3)o1`: the cytotoxicity at 70.5 h is -0.228%.

On to `Cc1cc(CN2C[C@H](OCC3CCOCC3)[C@H]3COC[C@H]32)oc1C`, for which the cytotoxicity at 70.5 h was -0.082%.

As for `CC(C)(C)CN1CCOC[C@H]1c1nc(-c2cccc(F)c2)c[nH]1`, the cytotoxicity at 70.5 h is -6.97%.

Turning to `CNCc1ccc([C@@H]2CN(C)C[C@H]2C(N)=O)cc1`, the cytotoxicity at 70.5 h worked out at 19.9%.

As for `COc1ccc(CCC(=O)N(C(C)C)C2CCOCC2)cc1`, the cytotoxicity at 70.5 h was -6.93%.

As to `COc1cc(OC)cc(C2NC(=O)CN2Cc2ccc(Br)cc2)c1` (stereo not drawn), the cytotoxicity at 70.5 h is -8.73%.

`CCNC(=O)NC(=O)CNC(C)(CC)c1nc(C)cs1` (stereo not drawn): the cytotoxicity at 70.5 h was -4.63%.

For the compound `CSc1cccc(CN(C)C(=O)C2CC(=O)N(CCN(C)C)C2)c1` (stereo not drawn), the cytotoxicity at 70.5 h was determined as 5.8%.

As for `COCCN1C(=O)[C@H]2CC[C@@H]1CN(Cc1nnc(C3CC3)o1)C2`, the cytotoxicity at 70.5 h amounted to 19.1%.

Turning to `Cc1cc(C)nc(N2C[C@H]3OC(=O)N(CCc4cccc(Cl)c4)[C@H]3C2)n1`, the cytotoxicity at 70.5 h was -0.529%.

Turning to `CNCCNc1nccc(-c2cn(C)nc2C)n1`, the cytotoxicity at 70.5 h is -5.66%.

`COCc1noc(-c2ccc(N3CCC[C@H]3CO)nc2)n1`: the cytotoxicity at 70.5 h was -7.06%.

Consider `CN(CCN1CCN(c2ccccc2)CC1)C(=O)Nc1ccncc1`, for which the cytotoxicity at 70.5 h was -3.63%.

The values are drawn from ChEMBL document CHEMBL3507680, “University of Dundee, Gates Library screen for HepG2 cell viability”.
